These results are taken from US6737383B1, “Herbicidal oxadiazolidines” (priority 1999, dated 2004).

Assay [1] deals with bamyardgrass. As to the kind of experiment: Test B flood test barnyardgrass. The assay is classed as in vivo, Echinochloa crus-galli. To be noted: for Barnyardgrass plant response rating (0 to 10 scale, 0 is no effect, 10 is complete control): under heading Pre-emergence; for Barnyardgrass plant response rating (0 to 10 scale, 0 is no effect, 10 is complete control) / Plant response rating, Barnyardgrass (0 to 10 scale, 0 is no effect, 10 is complete control): visual evaluation after twelve to sixteen days. The gist of the method: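 Plants were grown to the 2-leaf stage before treatment with test chemical, then held in a greenhouse for twelve to sixteen days. Injury was visually rated against untreated controls on a 0–10 scale, where 0 is no effect and 10 is complete control.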

In assay [2] the test system is bedstraw. Nature of the assay: Test B pre/postemergence bedstraw. The assay is classed as in vivo, Galium aparine. The procedure, abridged: (§1)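 Herbicidal effect was estimated by eye on a ten-point control scale after plants spent twelve to sixteen days in a greenhouse following soil or foliar treatment. Foliar sprays targeted plants at one to four leaves; all doses were formulated in a non-phytotoxic solvent with surfactant.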

The test system of assay [3] is purple nutsedge. Nature of the assay: Test B pre/postemergence purple nutsedge. Type of assay: in vivo, Cyperus rotundus. The procedure, abridged: as §1
For assay [4], the system named is morningglory. As to the kind of experiment: Test B pre/postemergence morningglory. Type of assay: in vivo, Ipomoea hederacea. The gist of the method:
as §1

[5] abbreviates: Pre-emergence, Rate 1000 g/ha, scale 0 to 10 (0 no effect, 10 complete control).
Setting [6] is: Rate 125 g/ha, flood test species.
Where [7] appears, read: Rate 250 g/ha, Pre-emergence (flood test species), scale 0 to 10, 0 is no effect, 10 is complete control.
[8] abbreviates: Rate 500 g/ha, Pre-emergence section of Table B, 0 to 10 scale (0 no effect, 10 complete control).
Where [9] appears, read: Preemergence, Rate 125 g/ha, scale of 0 to 10 where 0 is no effect and 10 is complete control.
[10] abbreviates: Preemergence, Rate 250 g/ha, scale 0 to 10 (0 no effect, 10 complete control).
Where [11] appears, read: Preemergence, Rate 500 g/ha, scale of 0 to 10 where 0 is no effect and 10 is complete control.
Setting [12] is: Rate 1000 g/ha, Preemergence, scale 0 to 10 (0 no effect, 10 complete control).
[13] abbreviates: Postemergence, Rate 125 g/ha, scale of 0 to 10 where 0 is no effect and 10 is complete control.
[14] abbreviates: Postemergence, Rate 500 g/ha, scale of 0 to 10 where 0 is no effect and 10 is complete control.
[15] abbreviates: Postemergence, Rate 1000 g/ha, scale 0 to 10 (0 no effect, 10 complete control).
The mark [16] stands for this setting: Postemergence, Rate 250 g/ha, scale of 0 to 10, 0 is no effect, 10 is complete control.
Setting [17] is: Postemergence block (flood test species), Rate 250 g/ha, scale 0 to 10.
The mark [18] stands for this setting: Postemergence section (flood test species), Rate 500 g/ha, scale of 0 to 10 where 0 is no effect and 10 is complete control.
[19] abbreviates: Rate 62 g/ha, Postemergence (flood test species), scale of 0 to 10 where 0 is no effect and 10 is complete control.
The mark [20] stands for this setting: Rate 125 g/ha, Postemergence section (flood test species), scale 0 to 10, 0 is no effect, 10 is complete control.
The mark [21] stands for this setting: Rate 125 g/ha, Postemergence, scale 0 to 10, 0 is no effect, 10 is complete control.
Setting [22] is: Postemergence, Rate 250 g/ha, scale 0 to 10.
Where [23] appears, read: Preemergence, Rate 62 g/ha, scale 0 to 10 (0 no effect, 10 complete control).
[24] abbreviates: Preemergence, Rate 250 g/ha, scale 0 to 10, 0 is no effect, 10 is complete control.
The mark [25] stands for this setting: Preemergence, Rate 500 g/ha, scale 0 to 10, 0 is no effect, 10 is complete control.
Setting [26] is: Rate 62 g/ha, flood test species, Pre-emergence.
Where [27] appears, read: Rate 500 g/ha, Pre-emergence, flood test species, scale 0 to 10 (0 no effect, 10 complete control).
[28] abbreviates: Preemergence, Rate 62 g/ha, scale of 0 to 10 where 0 is no effect and 10 is complete control.
Setting [29] is: Rate 62 g/ha, Postemergence, scale 0 to 10 (0 no effect, 10 complete control).

For `CCOP(=O)(OCC)C(C)n1c(=O)on(C(=O)N(c2ccc(F)cc2)C(C)C)c1=O` (centres unmarked) [Compound 617], the “Barnyardgrass plant response rating” value in assay [1] (setting [5]), in assay [1] (setting [7]) and in assay [1] (setting [8]) was 0 in each case. Also, the “Barnyardgrass plant response rating (0 to 10 scale, 0 is no effect, 10 is complete control)” value in assay [1] (setting [6]) is given as 0. Besides, the “Bedstraw plant response rating” value in assay [2] (setting [9]) and in assay [2] (setting [11]) was 0 in each case. For the same compound, the “Plant response rating, Bedstraw” value in assay [2] (setting [10]) and in assay [2] (setting [12]) was 0 throughout. For the same compound, the “Plant response rating, Nutsedge” value in assay [3] (setting [13]) is 0; in assay [3] (setting [14]) it was 0; in assay [3] (setting [10]), 0; in assay [3] (setting [11]), 5; in assay [3] (setting [12]), 8. Also, the “Nutsedge plant response rating” value in assay [3] (setting [15]) and in assay [3] (setting [9]) was 0 throughout. Also, the “Plant response rating, Morningglory” value in assay [4] (setting [13]) worked out at 0; in assay [4] (setting [14]) it was 3; in assay [4] (setting [10]) it was 0; in assay [4] (setting [11]) it was 0; in assay [4] (setting [12]) it was 0. The entries for the “Morningglory plant response rating” value in assay [4] (setting [16]), in assay [4] (setting [15]) and in assay [4] (setting [9]) were 0, 6 and 0, respectively.

`COC(=O)C(C)n1c(=O)on(C(=O)N(c2ccc(Cl)cc2)C(C)C)c1=O` (centres unmarked) [Compound 623]: the “Barnyardgrass plant response rating” value in assay [1] (setting [5]), in assay [1] (setting [7]) and in assay [1] (setting [8]) was 0 throughout. Further, in assay [1] (setting [6]), the “Barnyardgrass plant response rating (0 to 10 scale, 0 is no effect, 10 is complete control)” value turned out to be 0. In addition, the “Plant response rating, Nutsedge” value in assay [3] (setting [13]), in assay [3] (setting [10]), in assay [3] (setting [11]) and in assay [3] (setting [12]) was 0 each time. Besides, the “Nutsedge plant response rating” value in assay [3] (setting [16]) and in assay [3] (setting [9]) was 0 throughout. Further, the “Plant response rating, Morningglory” value in assay [4] (setting [13]) is 6; in assay [4] (setting [14]), 10; in assay [4] (setting [10]) it was 0; in assay [4] (setting [11]), 0; in assay [4] (setting [12]), 0. The “Morningglory plant response rating” value in assay [4] (setting [16]) is recorded as 8; in assay [4] (setting [15]) it was 10; in assay [4] (setting [9]), 0.

On to `CC(C)N(C(=O)n1oc(=O)n(CC#N)c1=O)c1ccccc1` [Compound 434], for which the “Barnyardgrass plant response rating” value in assay [1] (setting [17]), in assay [1] (setting [18]), in assay [1] (setting [19]) and in assay [1] (setting [20]) was 0 throughout. Further, the “Bedstraw plant response rating” value in assay [2] (Rate 62 g/ha, Postemergence, scale of 0 to 10 where 0 is no effect and 10 is complete control) turned out to be 0; in assay [2] (setting [21]), 0. For the same compound, the “Nutsedge plant response rating” value in assay [3] (setting [22]), in assay [3] (setting [14]), in assay [3] (setting [24]), in assay [3] (setting [25]) and in assay [3] (setting [21]) was 0 each time. In addition, the “Plant response rating, Nutsedge” value in assay [3] (setting [23]) and in assay [3] (setting [9]) was 0 each time. The “Morningglory plant response rating” value turned out to be 1 in assay [4] (setting [22]); 1 in assay [4] (setting [14]); 0 in assay [4] (setting [24]); 0 in assay [4] (setting [25]); 0 in assay [4] (setting [21]). In addition, the “Plant response rating, Morningglory” value in assay [4] (setting [23]) and in assay [4] (setting [9]) was 0 each time.

For the compound `C=CC(CC)n1c(=O)on(C(=O)N(c2ccccc2)C(C)C)c1=O` (centres unmarked) [Compound 455], the “Plant response rating, Barnyardgrass (0 to 10 scale, 0 is no effect, 10 is complete control)” value in assay [1] (setting [26]) came to 0. For the same compound, the “Barnyardgrass plant response rating (0 to 10 scale, 0 is no effect, 10 is complete control)” value in assay [1] (setting [6]) amounted to 0. The “Barnyardgrass plant response rating” value in assay [1] (setting [7]) and in assay [1] (setting [27]) was 0 each time. Moreover, the “Nutsedge plant response rating” value was determined as 0 in assay [3] (setting [22]); 0 in assay [3] (setting [24]); 3 in assay [3] (setting [25]); 0 in assay [3] (setting [29]); 0 in assay [3] (setting [21]). The “Plant response rating, Nutsedge” value in assay [3] (setting [28]) and in assay [3] (setting [9]) was 0 each time. Also, the “Morningglory plant response rating” value is reported as 8 in assay [4] (setting [22]); 0 in assay [4] (setting [24]); 4 in assay [4] (setting [25]); 3 in assay [4] (setting [29]); 8 in assay [4] (setting [21]). Further, the “Plant response rating, Morningglory” value in assay [4] (setting [28]) and in assay [4] (setting [9]) was 0 each time.

For `CC(C)N(C(=O)n1oc(=O)n(C(C)C#N)c1=O)c1ccc(F)cc1F` (centres unmarked) [Compound 432], the “Barnyardgrass plant response rating” value in assay [1] (setting [17]), in assay [1] (setting [18]), in assay [1] (setting [19]) and in assay [1] (setting [20]) was 0 in each case. In addition, the “Nutsedge plant response rating” value in assay [3] (setting [22]), in assay [3] (setting [14]), in assay [3] (setting [24]), in assay [3] (setting [25]) and in assay [3] (setting [21]) was 0 in each case. Moreover, the “Plant response rating, Nutsedge” value in assay [3] (setting [23]) and in assay [3] (setting [9]) was 0 each time. Besides, the “Morningglory plant response rating” value amounted to 1 in assay [4] (setting [22]); 2 in assay [4] (setting [14]); 0 in assay [4] (setting [24]); 0 in assay [4] (setting [25]); 1 in assay [4] (setting [21]). Besides, the “Plant response rating, Morningglory” value in assay [4] (setting [23]) and in assay [4] (setting [9]) was 0 each time.

As for `CC(C)N(C(=O)n1oc(=O)n(C(C)C(=O)N(C)C)c1=O)c1ccc(F)cc1` (centres unmarked) [Compound 478], the “Plant response rating, Barnyardgrass (0 to 10 scale, 0 is no effect, 10 is complete control)” value in assay [1] (setting [26]) amounted to 0. Besides, the “Barnyardgrass plant response rating (0 to 10 scale, 0 is no effect, 10 is complete control)” value in assay [1] (setting [6]) worked out at 0. For the same compound, the “Barnyardgrass plant response rating” value in assay [1] (setting [7]) and in assay [1] (setting [27]) was 0 throughout. In addition, the “Plant response rating, Bedstraw” value in assay [2] (setting [9]) was determined as 8. The results for the “Bedstraw plant response rating” value in assay [2] (setting [24]), in assay [2] (setting [29]) and in assay [2] (setting [21]) were 8, 0 and 0, respectively. The “Nutsedge plant response rating” value is on record as 0 in assay [3] (setting [22]); 0 in assay [3] (setting [24]); 3 in assay [3] (setting [25]); 0 in assay [3] (setting [29]); 0 in assay [3] (setting [21]). The “Plant response rating, Nutsedge” value in assay [3] (setting [28]) and in assay [3] (setting [9]) was 0 throughout. The “Morningglory plant response rating” value is given as 7 in assay [4] (setting [22]); 1 in assay [4] (setting [24]); 2 in assay [4] (setting [25]); 3 in assay [4] (setting [29]); 3 in assay [4] (setting [21]). For the same compound, the “Plant response rating, Morningglory” value in assay [4] (setting [28]) and in assay [4] (setting [9]) was 0 in each case.
